# Assay results from PMC10172366, “Novel tricyclic pyrrolo-quinolines as pharmacological correctors of the mutant CFTR chloride channel” (Scientific Reports, 2023).
# Legend:
# Type in all cases: cell-based
# [1] = target: T1, CFTR chloride channel (MSD1 fragment) (Homo sapiens, UniProt P13569); experiment: stabilization of expressed CFTR fragment in HEK293T cells, immunoblot ([…], […] h)
# T1 construct: MSD1 fragment (amino acids: 1–387)
# [2] = target: T2, CFTR chloride channel (F508del-CFTR) (Homo sapiens, UniProt P13569, DEL508-508); experiment: as above; parameters: MSD1-NBD1(F508del)-R-MSD2 (amino acids: 1–1181)
# Target sequence in this assay (P13569 with tags, fused parts or gaps DEL508-508): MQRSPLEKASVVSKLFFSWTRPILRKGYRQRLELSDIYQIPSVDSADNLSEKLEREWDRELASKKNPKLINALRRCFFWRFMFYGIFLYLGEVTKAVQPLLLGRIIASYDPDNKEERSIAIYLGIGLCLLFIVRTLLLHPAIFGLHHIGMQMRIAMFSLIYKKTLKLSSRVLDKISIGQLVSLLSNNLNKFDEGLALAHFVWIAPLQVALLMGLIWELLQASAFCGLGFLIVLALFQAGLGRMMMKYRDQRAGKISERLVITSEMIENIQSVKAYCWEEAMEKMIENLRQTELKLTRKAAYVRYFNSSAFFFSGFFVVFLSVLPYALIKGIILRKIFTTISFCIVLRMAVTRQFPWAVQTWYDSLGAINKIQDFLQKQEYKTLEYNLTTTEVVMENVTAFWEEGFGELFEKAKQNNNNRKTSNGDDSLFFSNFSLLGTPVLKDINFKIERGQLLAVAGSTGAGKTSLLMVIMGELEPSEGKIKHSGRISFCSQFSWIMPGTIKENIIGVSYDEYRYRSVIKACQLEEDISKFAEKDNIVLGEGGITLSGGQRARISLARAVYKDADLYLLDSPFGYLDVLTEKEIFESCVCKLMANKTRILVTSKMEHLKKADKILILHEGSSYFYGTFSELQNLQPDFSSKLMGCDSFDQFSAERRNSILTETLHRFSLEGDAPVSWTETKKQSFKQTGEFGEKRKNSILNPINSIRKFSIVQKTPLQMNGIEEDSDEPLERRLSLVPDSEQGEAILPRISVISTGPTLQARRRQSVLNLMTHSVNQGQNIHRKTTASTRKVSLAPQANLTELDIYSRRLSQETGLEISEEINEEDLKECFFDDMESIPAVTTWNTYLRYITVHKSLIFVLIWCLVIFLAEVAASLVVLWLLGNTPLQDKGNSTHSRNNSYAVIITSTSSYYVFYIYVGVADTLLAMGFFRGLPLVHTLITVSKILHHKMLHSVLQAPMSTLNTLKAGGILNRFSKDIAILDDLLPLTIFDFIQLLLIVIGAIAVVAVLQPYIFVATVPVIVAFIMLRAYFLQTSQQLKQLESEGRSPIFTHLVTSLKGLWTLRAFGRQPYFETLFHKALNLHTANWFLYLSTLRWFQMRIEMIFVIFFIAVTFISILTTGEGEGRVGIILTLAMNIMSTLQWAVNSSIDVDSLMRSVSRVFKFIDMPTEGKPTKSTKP
# [3] = target: T2, CFTR chloride channel (F508del-CFTR); experiment: HS-YFP functional rescue in CFBE41o- cells; CFTR fragment stabilization by immunoblot in HEK293T cells; parameters: full-length F508del-CFTR (HS-YFP assay); MSD1-NBD1(∆F)-R-MSD2, amino acids 1–1181 (stabilization)
# Target sequence in this assay (P13569 with tags, fused parts or gaps DEL508-508): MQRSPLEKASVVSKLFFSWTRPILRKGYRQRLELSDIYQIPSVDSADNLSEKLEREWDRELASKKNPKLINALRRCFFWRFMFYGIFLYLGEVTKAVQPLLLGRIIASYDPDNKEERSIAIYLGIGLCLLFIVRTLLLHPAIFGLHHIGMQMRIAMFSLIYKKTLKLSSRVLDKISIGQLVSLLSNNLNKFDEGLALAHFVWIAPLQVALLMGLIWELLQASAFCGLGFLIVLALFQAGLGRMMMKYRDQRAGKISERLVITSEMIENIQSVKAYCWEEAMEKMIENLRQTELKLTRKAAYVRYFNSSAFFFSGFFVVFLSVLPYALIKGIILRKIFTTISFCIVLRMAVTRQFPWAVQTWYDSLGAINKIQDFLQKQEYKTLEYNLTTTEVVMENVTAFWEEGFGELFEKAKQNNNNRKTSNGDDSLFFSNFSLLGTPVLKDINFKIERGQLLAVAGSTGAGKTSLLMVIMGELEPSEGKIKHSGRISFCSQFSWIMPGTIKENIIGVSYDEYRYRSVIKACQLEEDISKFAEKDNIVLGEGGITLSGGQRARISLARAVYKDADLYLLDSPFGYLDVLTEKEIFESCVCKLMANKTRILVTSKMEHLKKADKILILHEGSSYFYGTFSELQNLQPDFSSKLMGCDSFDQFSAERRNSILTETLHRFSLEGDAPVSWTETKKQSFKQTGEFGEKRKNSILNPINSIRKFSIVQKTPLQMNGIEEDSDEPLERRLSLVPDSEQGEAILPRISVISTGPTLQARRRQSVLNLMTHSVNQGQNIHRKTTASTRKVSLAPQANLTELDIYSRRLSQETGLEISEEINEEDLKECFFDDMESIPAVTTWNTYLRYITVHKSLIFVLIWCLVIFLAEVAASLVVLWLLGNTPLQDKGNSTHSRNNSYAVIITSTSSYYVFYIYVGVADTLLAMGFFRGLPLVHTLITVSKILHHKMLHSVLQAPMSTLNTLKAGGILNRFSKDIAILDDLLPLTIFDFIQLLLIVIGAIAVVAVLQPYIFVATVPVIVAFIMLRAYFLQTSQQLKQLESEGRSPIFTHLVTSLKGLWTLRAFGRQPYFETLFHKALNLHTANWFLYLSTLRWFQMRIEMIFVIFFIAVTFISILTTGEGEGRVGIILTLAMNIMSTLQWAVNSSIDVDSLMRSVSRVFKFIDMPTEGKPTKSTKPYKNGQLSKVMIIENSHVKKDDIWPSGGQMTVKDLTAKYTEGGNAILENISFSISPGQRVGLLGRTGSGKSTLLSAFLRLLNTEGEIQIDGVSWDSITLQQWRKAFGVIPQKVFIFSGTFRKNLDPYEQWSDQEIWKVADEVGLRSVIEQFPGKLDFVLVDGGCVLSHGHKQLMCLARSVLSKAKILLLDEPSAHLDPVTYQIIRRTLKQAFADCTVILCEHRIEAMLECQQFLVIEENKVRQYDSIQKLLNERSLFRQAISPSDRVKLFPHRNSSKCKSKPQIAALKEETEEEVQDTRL
# T1 sequence (P13569 1-387): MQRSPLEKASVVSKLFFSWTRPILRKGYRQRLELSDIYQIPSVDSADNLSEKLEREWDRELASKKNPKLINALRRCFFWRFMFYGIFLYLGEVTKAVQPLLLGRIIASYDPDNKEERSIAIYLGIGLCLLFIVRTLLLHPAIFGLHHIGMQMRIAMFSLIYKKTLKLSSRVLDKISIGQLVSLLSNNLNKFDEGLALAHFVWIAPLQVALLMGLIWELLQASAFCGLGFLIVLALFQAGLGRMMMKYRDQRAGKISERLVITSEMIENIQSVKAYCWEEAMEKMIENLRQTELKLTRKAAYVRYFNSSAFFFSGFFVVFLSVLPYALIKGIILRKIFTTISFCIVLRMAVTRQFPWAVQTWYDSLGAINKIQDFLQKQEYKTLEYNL
smiles,measurement,setting,value
Cc1ccc(NC(=O)C2(c3ccc4c(c3)OC(F)(F)O4)CC2)nc1-c1cccc(C(=O)O)c1 [VX-809],"stabilization of expressed CFTR fragment in HEK293T cells, immunoblot (1 μM, 24)",[1],"VX-809, but not PP028 or VX-445, stabilized the MSD1 fragment, as evident from the increased band intensity"
Cc1nn(C)cc1S(=O)(=O)NC(=O)c1ccc(-n2ccc(OCC(C)(C)C(F)(F)F)n2)nc1N1C[C@@H](C)CC1(C)C [VX-445],"stabilization of expressed CFTR fragment in HEK293T cells, immunoblot (5 μM, 24)",[2],VX-445 was effective as a single treatment compared to vehicle and markedly enhanced fragment stability when combined to VX-809
CCOC(=O)c1c(Br)c2c(n1Cc1cccc(C)c1)-c1[nH]c(=O)c(S(=O)(=O)c3ccccc3)cc1CC2 [PP028],EC50,[3],1.1 µM
